Each molecule was assayed against T1, HIV-TAT (Human immunodeficiency virus type 1 group M subtype B, UniProt P04608) (assay: anti-HIV-TAT assay (SeAP reporter under HIV-LTR versus RSV-LTR in transfected COS cells)). Details: specific inhibition 100 [(1-A/B) - (1-C/D)] of SeAP under HIV-LTR versus RSV-LTR, concentrations tested 1 to 50 /1.M, compound added 24 hours post transfection, assayed 48 hours after addition, average of at least three tests.
T1 construct: expressed in transfected cells; host or cells: COS cells
T1 sequence (P04608 whole entry): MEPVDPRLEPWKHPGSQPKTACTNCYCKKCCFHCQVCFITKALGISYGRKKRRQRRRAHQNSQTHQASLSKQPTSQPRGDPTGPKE
Type: cell-based
Description: The compounds of formula I were tested for anti-HIV-TAT activity in an assay described in US Patent No. 5070010, comprising the following steps: • (a) putting both the expression of the Secreted Alkaline Phosphatase (SeAP) gene and the viral trasactivator TAT gene under the control of the HIV promoter LTR responsive to the action of the HIV transactivator TAT; • (b) transfecting cultured mammalian cells with plasmids which contain the gene constructs of (a) above and cause cellular production of the trasactivating factor TAT ad SeAP; • (c) adding the agent to be tested, here the compounds of formula I; and determining the amount of SeAP produced, by measuring SeAP enzymatic activity, whereby inhibition of SeAP production correlates with the anti-TAT inhibition activity.
In this assay, the inhibition of SeAP positively correlates with anti-TAT activity. The greater the ability of a agent to inhibit SeAP, the greater is its anti-TAT activity.
Specifically, with respect to the results reported below, the anti-HIV-TAT assay was run as follows: • At 24 hours post transfection 1, 10 and 50 /1.M of a test compound of formula I was added to the culture media of COS cells transfected with two plasmids, one containing the reporter gene which codes for SeAP under control of HIV-LTR, and the other containing the HIV-TAT gene also under control of HIV-LTR. […]
The anti-HIV-TAT activities of the test compounds were determined by measuring the amount of alkaline phosphatase in the supernatant media of cultures of cells in which SeAP gene expression was under the control of the HIV LTR promoter. The specific inhibitory activities of the test compounds were calculated according to the formula: 100 [(1-A/B) - (1-C/D)] where A and B are the alkaline phosphatase activites produced by HIV-LTR/SeAP in the presence and absence, respectively, of test compound, and C and D are the alkaline phosphatase activities produced by RSV-LTR/SeAP in the presence and absence, respectively, of test compound. […]
With CNC1=Nc2ccc(Cl)cc2C(c2cnn[nH]2)=NC1 [Example 1, 7-chloro-N-methyl-5-(1H-1,2,3-triazol-5-yl)3H-1,4-benzodiazepin-2-amine] the Anti-HIV-TAT activity was “High (High is >60% inhibition)”.
With CNC1=Nc2ccc(Cl)cc2C(c2cn[nH]c2)=NC1 [Example 2, 7-chloro-N-methyl-5-(1 H-pyrazol-4-yl)-3H-1,4-benzodiazepin-2-amine] the Anti-HIV-TAT activity was “High/Medium”.
For CNC1=Nc2ccc(C)cc2C(c2cn[nH]c2)=NC1 [Example 3, N,7-Dimethyl-5-(1 H-pyrazol-4-yl)-3H-1,4-benzodiazepin-2-amine], the Anti-HIV-TAT activity was “High/Medium”.

From EP0574781A2, “2-Amino-5-heterocyclic-substituted-1,4-benzodiazepines and their use in the treatment of aids” (priority 1992, dated 1993)
